Reference: the supplement of paper PMC11919725

Columns and labels:
[1] = tested on: Jurkat; assay: metabolic activity relative to DMSO, 18 h (ratio); higher = more viable
Summary of the method: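 Naive or CD3/CD28 Dynabead-activated (48 h) primary CD4+/CD8+ T cells, or Jurkat cells, received compound at 1 nM–10 µM for 18 h. Readout used alamarBlue at 10% v/v final, with fluorescence taken after 3.5 h. Metabolic activity is given relative to mean vehicle control values.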

[2] = tested on: Jurkat; assay: cytotoxicity relative to DMSO, 18 h (ratio); higher = less cell death (drugs called cytotoxic fall below 1)
Summary of the method: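 Jurkat cells or primary CD4+/CD8+ T cells, either naive or activated for 48 h with CD3/CD28 Dynabeads, were exposed to compound from 1 nM to 10 µM in log10 steps for 18 h at 37 °C, 5% CO2. Aliquots of 100 µl of suspension were then moved to 96-well plates containing IncuCyte Cytotox Dye at 250 nM final. Cytotoxicity was read by IncuCyte fluorescence imaging, with signals corrected for confluency and normalised to the mean of control wells.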

[3] = tested on: Jurkat; assay: confluency relative to DMSO, 18 h (ratio); higher = more viable
Summary of the method: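 Naive or CD3/CD28 Dynabead-activated (48 h) primary CD4+/CD8+ T cells, or Jurkat cells, received compound at 1 nM–10 µM for 18 h at 37 °C. Confluency was measured by IncuCyte phase-contrast imaging with the Basic Analyzer and normalised to the mean of the control wells. Imaging used 100 µl of suspension per well in 96-well plates with IncuCyte Cytotox Dye and alamarBlue, at ×10 with five images per well every hour for 3 h.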

Row | SMILES | metabolic activity ([1]; 1 nM) | metabolic activity ([1]; 10 nM) | metabolic activity ([1]; 100 nM) | metabolic activity ([1]; 1000 nM) | metabolic activity ([1]; 10000 nM) | cytotoxicity ([2]; 1 nM) | cytotoxicity ([2]; 10 nM) | cytotoxicity ([2]; 100 nM) | cytotoxicity ([2]; 1000 nM) | cytotoxicity ([2]; 10000 nM) | confluency ([3]; 1 nM) | confluency ([3]; 10 nM) | confluency ([3]; 100 nM) | confluency ([3]; 1000 nM) | confluency ([3]; 10000 nM)
1 | O=C1NC(=O)C(=Cc2ccc3nccc(-c4ccncc4)c3c2)S1 | 0.992 | 0.956 | 0.964 | 0.723 | 0.426 | 0.944 | 0.984 | 0.956 | 0.762 | 0.804 | 0.989 | 0.988 | 0.968 | 0.812 | 1.01
2 | O=C(O)c1ccc(CN2CCC(CNC3CC3c3ccccc3)CC2)cc1 (stereo not given) | 1.09 | 1.06 | 1.09 | 1.08 | 1.02 | 1 | 1.04 | 1.1 | 1.04 | 1.03 | 0.954 | 0.956 | 0.996 | 0.987 | 0.993
3 | CC(C)CC(=O)Nc1n[nH]c2c1CN(C(=O)C1CCN(C)CC1)C2(C)C | 1.17 | 1.2 | 1.26 | 1.24 | 0.438 | 0.914 | 0.908 | 1.05 | 1.07 | 0.406 | 0.887 | 0.876 | 0.978 | 0.97 | 0.591
4 | Cc1c(Cn2c(C)nc3c(C(=O)O)cc(N4CCOCC4)cc32)cccc1C(F)(F)F | 0.862 | 0.891 | 1 | 1.25 | 1.08 | 0.881 | 0.947 | 1.05 | 1.14 | 1.01 | 0.923 | 0.973 | 1.05 | 1.03 | 0.998
5 | COc1ccc(-c2cc3c(C)nc(N)nc3n(C3CCC(OCCO)CC3)c2=O)cn1 (stereo not given) | 1.08 | 1.01 | 0.734 | 0.562 | 0.402 | 1.02 | 0.94 | 0.882 | 0.666 | 0.721 | 1.01 | 0.951 | 0.927 | 0.741 | 0.9
6 | COc1ccc(Cn2ccc3ccc(C(=O)NO)cc32)cc1 | 1.03 | 0.992 | 1.02 | 1.01 | 1.02 | 0.955 | 0.926 | 0.954 | 1.04 | 0.938 | 1.01 | 1.01 | 1 | 1.01 | 1
7 | COCCN1CCN(Cc2ccc(-c3n[nH]c4c3C(=O)c3c(NC(=O)NN5CCOCC5)cccc3-4)cc2)CC1.Cl.Cl | 1.05 | 0.968 | 0.223 | 0.221 | 0.198 | 0.969 | 0.715 | 0.581 | 0.639 | 0.62 | 0.976 | 0.788 | 0.898 | 0.951 | 0.909
8 | Cc1sc2c(c1C)C(c1ccc(Cl)cc1)=NC(CC(=O)OC(C)(C)C)c1nnc(C)n1-2 (single isomer, unassigned; (+)) [(+)-JQ-1] | 1.05 | 0.989 | 1.13 | 1.1 | 0.987 | 1.09 | 0.985 | 1.22 | 1.07 | 0.995 | 1.02 | 0.962 | 1.02 | 1.01 | 1.02
9 | Nc1ncn(C2OC(CO)C(O)C2O)c(=O)n1 (stereo not given) [5-Azacytidine] | 1.05 | 1.03 | 1.03 | 0.994 | 0.344 | 0.896 | 0.89 | 1.12 | 1 | 1.12 | 0.777 | 0.792 | 0.976 | 0.919 | 0.961
10 | O=c1[nH]cc(F)c(=O)[nH]1 [5-Fluorouracil] | 1.03 | 0.913 | 0.967 | 0.999 | 0.971 | 0.997 | 0.931 | 0.995 | 0.946 | 0.985 | 1 | 0.981 | 0.992 | 0.978 | 0.996
11 | O=C(NO)c1cnc(NC2(c3ccccc3)CC2)nc1 [ACY738] | 0.936 | 0.962 | 1.1 | 0.862 | 0.713 | 0.969 | 0.95 | 1.15 | 1.05 | 0.982 | 1.01 | 0.994 | 1.03 | 0.995 | 0.999
12 | Cc1csc(-c2nnc(Nc3ccc(Oc4ncccc4-c4ccnc(N)n4)cc3)c3ccccc23)c1 [AMG-900] | 0.99 | 0.973 | 1.02 | 0.871 | 0.865 | 0.919 | 0.897 | 0.856 | 0.848 | 0.823 | 0.926 | 0.91 | 0.92 | 0.874 | 0.878
13 | CC(C)C(C(=O)Nc1ccc(C(=O)NO)cc1)c1ccccc1 (stereo not given) [AR-42] | 0.942 | 1.02 | 0.934 | 0.577 | 0.695 | 0.947 | 1.02 | 0.892 | 0.807 | 0.811 | 0.972 | 0.984 | 0.941 | 0.97 | 0.97
14 | Cc1ncc(-c2ccnc(Nc3ccc(S(C)(=O)=O)cc3)n2)n1C(C)C [AZD-5438] | 1.08 | 1.14 | 1.14 | 1.08 | 0.124 | 0.927 | 0.91 | 0.951 | 1.03 | 1.02 | 1.06 | 1.12 | 0.972 | 0.991 | 0.944
15 | Cc1cc(C(C)Nc2ccccc2C(=O)O)c2nc(N3CCOCC3)cc(=O)n2c1 (stereo not given) [AZD-6482] | 1.16 | 1.14 | 1.03 | 1.03 | 0.923 | 1.19 | 1.22 | 1.14 | 1.06 | 0.946 | 1.03 | 1.03 | 0.994 | 0.984 | 0.928
16 | COc1ccc(-c2ccc3c(N4CCOCC4C)nc(N4CCOCC4C)nc3n2)cc1CO (stereo not given) [AZD-8055] | 0.971 | 0.823 | 0.622 | 0.572 | 0.537 | 0.884 | 0.815 | 0.84 | 0.834 | 0.823 | 0.982 | 1 | 0.96 | 0.99 | 0.99
17 | CC(Nc1cc(F)cc(F)c1)c1cc(C(=O)N(C)C)cc2c(=O)cc(N3CCOCC3)oc12 (stereo not given) [AZD-8186] | 0.891 | 1.03 | 1.01 | 1.03 | 1.08 | 0.895 | 0.858 | 0.928 | 0.803 | 0.831 | 0.882 | 0.901 | 0.946 | 0.826 | 0.846
18 | CCN1CCN(Cc2ccc(Nc3ncc(F)c(-c4cc(F)c5nc(C)n(C(C)C)c5c4)n3)nc2)CC1 [Abemaciclib] | 1.22 | 1.24 | 1.2 | 1.15 | 0.888 | 1.04 | 1.13 | 1.06 | 1.09 | 0.718 | 0.952 | 1.02 | 0.98 | 0.991 | 0.818
19 | Cc1c2oc3c(C)ccc(C(=O)NC4C(=O)NC(C(C)C)C(=O)N5CCCC5C(=O)N(C)CC(=O)N(C)C(C(C)C)C(=O)OC4C)c3nc-2c(C(=O)NC2C(=O)NC(C(C)C)C(=O)N3CCCC3C(=O)N(C)CC(=O)N(C)C(C(C)C)C(=O)OC2C)c(N)c1=O (stereo not given) [Actinomycin D] | 0.959 | 0.746 | 0.2 | 0.152 | 0.192 | 1.08 | 1.02 | 0.661 | 0.517 | 0.477 | 1.11 | 1.09 | 0.972 | 0.907 | 0.923
20 | Cc1nc(NC(=O)N2CCCC2C(N)=O)sc1-c1ccnc(C(C)(C)C(F)(F)F)c1 (stereo not given) [Alpelisib] | 1.04 | 0.899 | 0.903 | 0.94 | 0.873 | 0.929 | 0.926 | 0.959 | 0.997 | 0.881 | 0.994 | 0.977 | 0.984 | 1.02 | 0.933
21 | CN1CCC(c2c(O)cc(O)c3c(=O)cc(-c4ccccc4Cl)oc23)C(O)C1 (stereo not given) [Alvocidib] | 1.04 | 0.946 | 0.712 | 0.086 | 0.108 | 1.03 | 0.92 | 0.89 | 0.505 | 0.526 | 0.999 | 0.999 | 0.974 | 0.927 | 0.939
22 | COc1cc(OC)c2c(=O)[nH]c(-c3cc(C)c(OCCO)c(C)c3)nc2c1 [Apabetalone] | 0.842 | 0.904 | 0.962 | 0.952 | 0.932 | 1.06 | 1.08 | 1.01 | 1.04 | 1.01 | 1.08 | 1.11 | 1.04 | 1.08 | 1.1
23 | Cc1c(CN2CCN(C(=O)C(C)O)CC2)sc2c(N3CCOCC3)nc(-c3cnc(N)nc3)nc12 (stereo not given) [Apitolisib] | 0.857 | 0.984 | 0.899 | 0.955 | 0.781 | 0.79 | 0.992 | 0.752 | 0.937 | 0.628 | 0.851 | 1.06 | 0.825 | 0.998 | 0.727
24 | COc1ccc(-c2ccc3ncc4c(c3c2)n(-c2ccc(N3CCNCC3)c(C(F)(F)F)c2)c(=O)n4C)cn1 [BGT-226] | 0.968 | 0.842 | 0.693 | 0.604 | 0.048 | 1.02 | 0.915 | 0.808 | 0.672 | 0.448 | 1.03 | 0.954 | 0.935 | 0.793 | 0.831
25 | CCS(=O)(=O)N1CC(CC#N)(n2cc(-c3ncnc4[nH]ccc34)cn2)C1 [Baricitinib] | 0.956 | 1.04 | 1.22 | 1.11 | 0.878 | 0.929 | 0.913 | 1.02 | 0.869 | 0.802 | 0.989 | 0.95 | 0.965 | 0.879 | 0.812
26 | O=C(C=Cc1cccc(S(=O)(=O)Nc2ccccc2)c1)NO [Belinostat] | 0.982 | 1.06 | 1.09 | 0.811 | 0.635 | 1.08 | 1.14 | 1.07 | 1.18 | 0.932 | 1.04 | 1.07 | 0.966 | 1.02 | 0.87
27 | Cn1cnc2c(F)c(Nc3ccc(Br)cc3F)c(C(=O)NOCCO)cc21 [Binimetinib] | 1.13 | 1.12 | 0.989 | 0.909 | 0.933 | 1.13 | 1.22 | 1 | 0.926 | 0.948 | 1 | 1.01 | 0.975 | 0.959 | 0.989
28 | CC(C)CC(NC(=O)C(Cc1ccccc1)NC(=O)c1cnccn1)B(O)O (stereo not given) [Bortezomib] | 1.2 | 1.13 | 0.556 | 0.181 | 0.149 | 1.02 | 0.944 | 0.569 | 0.531 | 0.539 | 0.99 | 0.969 | 0.721 | 0.934 | 0.951
29 | COc1cc(N2CCC(N3CCN(C)CC3)CC2)ccc1Nc1ncc(Cl)c(Nc2ccccc2P(C)(C)=O)n1 [Brigatinib] | 0.883 | 0.946 | 0.911 | 0.83 | 0.766 | 0.701 | 0.654 | 0.641 | 0.614 | 0.565 | 0.851 | 1.08 | 1.14 | 1.13 | 1.07
30 | CCOC(=O)Nc1cc(-c2ccc(C)c(NS(C)(=O)=O)c2)nn2c(C)nnc12 [Bromosporine] | 0.994 | 0.938 | 0.79 | 0.846 | 0.811 | 0.92 | 0.952 | 0.977 | 1.19 | 1.11 | 0.963 | 1 | 1.02 | 1.2 | 1.18
